Our source for the Ki values is patent US7335665B2, “Spirocyclic piperidines as MCH1 antagonists and uses thereof” (H - Lundbeck A/S, priority 2003, dated 2008).

As usually defined, the pKi is the negative decadic logarithm of the Ki, by convention in mol/L.

pKi: −log10 of the molar value.

The target of the first assay is T1, rat MCH1 receptor (Rattus norvegicus, UniProt P97639).
T1 construct: expressed in transfected cells; host or cells: Human embryonic kidney Peak rapid 293 cells (Peakr293), transient, calcium phosphate; membranes
T1 sequence (P97639 whole entry): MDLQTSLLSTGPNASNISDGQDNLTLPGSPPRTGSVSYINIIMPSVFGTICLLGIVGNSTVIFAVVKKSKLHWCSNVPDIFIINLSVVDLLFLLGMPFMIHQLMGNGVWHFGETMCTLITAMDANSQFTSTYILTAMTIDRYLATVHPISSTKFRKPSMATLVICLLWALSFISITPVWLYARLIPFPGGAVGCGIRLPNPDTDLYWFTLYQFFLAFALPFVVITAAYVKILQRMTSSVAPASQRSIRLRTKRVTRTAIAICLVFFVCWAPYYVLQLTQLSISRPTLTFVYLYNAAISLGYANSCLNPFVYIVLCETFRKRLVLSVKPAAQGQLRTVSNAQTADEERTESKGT
Kind of assay: Radioligand binding assay at cloned rat MCH1 receptor ([3H]Compound A displacement). Conditions: KI, cloned rat MCH1, membranes of transfected Peakr293 cells, 0.08 nM [3H]Compound A, 25° C., 90 minutes. On the procedure: For binding assays, pellets of transfected cells are suspended in ice-cold buffer (20 mM Tris.HCl, 5 mM EDTA, pH 7.4) and homogenized by sonication for 7 sec. The cell lysates are centrifuged at 200×g for 5 min at 4° C. The supernatants are then centrifuged at 40,000×g for 20 min at 4° C. The resulting pellets are washed once in the homogenization buffer and suspended in binding buffer (see methods for radioligand binding). Protein concentrations are determined by the method of Bradford (1976) using bovine serum albumin as the standard. Binding assays are usually performed immediately, however it is possible to prepare membranes in batch and store frozen in liquid nitrogen for future use.
Radioligand binding assays for the rat MCH1 receptor were carried out using plasmid pcDNA3.1-rMCH1-f (ATCC Patent Deposit Designation No. PTA-3505). Plasmid pcDNA3.1-rMCH1-f comprises the regulatory elements necessary for expression of DNA in a mammalian cell operatively linked to DNA encoding the rat MCH1 receptor so as to permit expression thereof. Plasmid pcDNA3.1-rMCH1-f was deposited on Jul. 5, 2001, with the American Type Culture Collection (ATCC), 12301 Parklawn Drive, Rockville, Md. 20852, U.S.A. under the provisions of the Budapest Treaty for the International Recognition of the Deposit of Microorganisms for the Purposes of Patent Procedure and was accorded ATCC Patent Deposit Designation No. PTA-3505.
Human embryonic kidney Peak rapid 293 cells (Peakr293 cells) were transiently transfected with DNA encoding the MCH1 receptor utilizing the calcium phosphate method and cell membranes were prepared as described above. Binding experiments with membranes from Peakr293 cells transfected with the rat MCH1 receptor were performed with 0.08 nM [^3H]Compound A (custom labeled by Amersham) (the synthesis of Compound A is described in detail below) using an incubation buffer consisting of 50 mM Tris pH 7.4, 10 mM MgCl2, 0.16 mM PMSF, 1 mM 1,10 phenantroline and 0.2% BSA. Binding was performed at 25° C. for 90 minutes. Incubations were terminated by rapid vacuum filtration over GF/C glass fiber filters, presoaked in 5% PEI using […] Tris pH 7.4 as wash buffer. In all experiments, nonspecific binding is defined using […] Compound A.
The compounds described above were assayed using cloned rat MCH1.
On to `O=C(NCCCN1CCC2(C=Cc3ccccc32)CC1)C(c1ccc(F)cc1)c1ccc(F)cc1` [Example 67, 2,2-BIS(4-FLUOROPHENYL)-N-(3-(SPIRO[INDENE-1,4′-PIPERIDINE]-10-YL)PROPYL)ACETAMIDE], for which the pKi was 8.62.
The same measure, in the same setting: with `O=C(Cc1ccc(F)cc1)NCCCCN1CCC2(CCc3ccccc32)CC1` [Example 9, 2-(4-FLUOROPHENYL)-N-(4-(SPIRO[INDANE-1,4′-PIPERIDINE]-10-YL)BUTYL)ACETAMIDE] the figure was 6.16; with `O=C(NCCCN1CCC2(CCc3ccccc32)CC1)C1(c2ccc(Cl)cc2)CCC1` [Example 59, [1-(4-CHLOROPHENYL)CYCLOBUTYL]-N-(3-(SPIRO[INDANE-1,4′-PIPERIDINE]-10-YL)PROPYL)CARBOXAMIDE], 6.76; with `CC(C(=O)NCCCN1CCC2(CC1)OCc1ccccc12)c1ccc(F)cc1` (stereo not shown) [Example 82, 2-(4-FLUOROPHENYL)-N-(3-(SPIRO[1,3-DIHYDROISOBENZOFURAN-1,4′-PIPERIDINE]-10-YL) PROPYL) PROPANAMIDE], 6.17.
`S=C(NCCCCCN1CCC2(CCc3ccccc32)CC1)Nc1cccc2ccccc12` [Example 22, (NAPHTHYLAMINO)[(5-(SPIRO[INDANE-1,4′-PIPERIDINE]-10-YL)PENTYL)AMINO]METHANE-1-THIONE] had a pKi of 6.29.
Turning to `O=C1c2ccccc2C(=O)N1CCCCN1CCC2(C=Cc3ccccc32)CC1` [Example 1, 2-(4-(-(SPIRO[INDENE-1,4′-PIPERIDINE]-10-YL)BUTYL)BENZO[C]AZOLINE-1,3-DIONE], the pKi is 6.09.
Same read-out and setting: the figure for `O=C(NCCCN1CCC2(CC1)OCc1ccccc12)C(c1ccccc1)(c1ccccc1)c1ccccc1` [Example 77, 2,2,2-TRIPHENYL-N-(3-(SPIRO[1,3-DIHYDROISOBENZOFURAN-1,4′-PIPERIDINE]-10-YL)PROPYL)ACETAMIDE] is 6.82; for `S=C(NCCCCCCN1CCC2(CCc3ccccc32)CC1)Nc1cccc2ccccc12` [Example 24, (NAPHTHYLAMINO)[(6-SPIRO[INDANE-1,4′-PIPERIDINE]-10-YLHEXYL)AMINO]METHANE-1-THIONE] it is 6.18; for `O=C(NCCCCCN1CCC2(C=Cc3ccccc32)CC1)C(c1ccccc1)c1ccccc1` [Example 40, 2,2-DIPHENYL-N-(5-(SPIRO[INDENE-1,4′-PIPERIDINE]-10-YL)PENTYL)ACETAMIDE] it is 6.42.
Consider `CCCc1nn(-c2ccc(Cl)cc2)cc1C(=O)NCCCCCCN1CCC2(CCc3ccccc32)CC1` [Example 10, [1-(4-CHLOROPHENYL)-3-PROPYL)PYRAZOL-4-YL]-N-(6-(SPIRO[INDANE-1,4′-PIPERIDINE]-10-YL)HEXYL)CARBOXAMIDE], for which the pKi was 6.12.
Compound `O=C(NCCCCN1CCC2(CCc3ccccc32)CC1)Nc1cc(Cl)cc(Cl)c1` [Example 26, N-(3,5-DICHLOROPHENYL)[(4-SPIRO[INDANE-1,4′-PIPERIDINE]-10-YLBUTYL)AMINO]CARBOXAMIDE] showed a negative logarithm of the Ki (pKi) of 6.29.
`O=C(NCCCCCN1CCC2(CCc3ccccc32)CC1)C(c1ccccc1)c1ccccc1` [Example 3, 2,2-DIPHENYL-N-(5-(SPIRO[INDANE-1,4′-PIPERIDINE]-10-YL)PENTYL)ACETAMIDE] gave a negative-log Ki (pKi) of 6.42.

The assay is the same for the next values; noted with them: cloned rat MCH1, membranes of transfected Peakr293 cells, 0.08 nM [3H]Compound A, 25° C., 90 minutes; read-out: KI.
For `Cc1ccc(C2(C(=O)NCCCN3CCC4(CC3)OCc3ccccc34)CCCC2)cc1` [Example 75, [(4-METHYL)PHENYL)CYCLOPENTYL]-N-(3-(SPIRO[1,3-DIHYDROISOBENZOFURAN-1,4′-PIPERIDINE]-10-YL)PROPYL)CARBOXAMIDE], the pKi was 6.15.
Still for that read-out and setting: the figure for `O=C(NCCCN1CCC2(CC1)OCc1ccc(Cl)cc12)C(c1ccccc1)c1ccccc1` [Example 100, N-[3-(5-CHLOROSPIRO[1,3-DIHYDROISOBENZOFURAN-3,4′-PIPERIDINE]-10-YL)PROPYL]-2,2-DIPHENYLACETAMIDE] is 8.59; for `O=C(NCCCN1CCC2(CCc3ccccc32)CC1)C1(c2ccc(F)cc2)CCCCC1` [Example 56, [1-(4-FLUOROPHENYL)CYCLOHEXYL]-N-(3-(SPIRO[INDANE-1,4′-PIPERIDINE]-10-YL)PROPYL)CARBOXAMIDE] it is 6.97; for `O=C(NCCCCN1CCC2(CCc3ccccc32)CC1)c1cc(Cl)cc(Cl)c1` [Example 7, (3,5-DICHLOROPHENYL)-N-[(4-(SPIRO[INDANE-1,4′-PIPERIDINE]-10-YL)BUTYL)AMINO]CARBOXAMIDE] it is 6.57.
The same measure, in the same setting: with `O=C(NCCCN1CCC2(C=Cc3ccccc32)CC1)C1(c2ccc(F)cc2)CCCC1` [Example 70, [(4-FLUOROPHENYL)CYCLOPENTYL]-N-(3-(SPIRO[INDENE-1,4′-PIPERIDINE]-10-YL)PROPYL)CARBOXAMIDE] the figure was 6.69; with `O=C1OC2(CCN(CCCNC(=O)C(c3ccccc3)c3ccccc3)CC2)c2ccccc21` [Example 93, N-[3-(1-OXOSPIRO[3-HYDROISOBENZOFURAN-3,4′-PIPERIDINE]-10-YL)PROPYL]-2,2-DIPHENYLACETAMIDE], 6.11.
The same measure, in the same setting: the figure for `O=C(NCCCN1CCC2(CCc3ccccc32)CC1)C(c1ccccc1)c1ccccc1` [Example 6, 2,2-DIPHENYL-N-(3-(SPIRO[INDANE-1,4′-PIPERIDINE]-10-YL)PROPYL)ACETAMIDE] is 7.47; for `O=C(NCCCCCCN1CCC2(CCc3ccccc32)CC1)c1cccnc1Oc1ccc(Cl)cc1` [Example 33, [2-(4-CHLOROPHENOXY)(3-PYRIDYL)]-N-(6-(SPIRO[INDANE-1,4′-PIPERIDINE]-10-YL)HEXYL)CARBOXAMIDE] it is 6.37; for `O=C(NCCCN1CCC2(CC1)OCc1ccccc12)C1(c2ccc(Cl)cc2)CCCC1` [Example 85, [(4-CHLOROPHENYL)CYCLOPENTYL]-N-(3-(SPIRO[1,3-DIHYDROISOBENZOFURAN-1,4′-PIPERIDINE]-10-YL)PROPYL)CARBOXAMIDE] it is 6.74.
For `O=C(NCCCCN1CCC2(CCc3ccccc32)CC1)c1cccnc1Oc1ccc(Cl)cc1` [Example 32, [2-(4-CHLOROPHENOXY)(3-PYRIDYL)]-N-(4-(SPIRO[INDANE-1,4′-PIPERIDINE]-10-YL)BUTYL)CARBOXAMIDE], the pKi was 6.41.
On the same count and under the same terms, with `O=C(NCCCN1CCC2(C=Cc3ccccc32)CC1)C1(c2ccc(Cl)cc2)CCCC1` [Example 69, [(4-CHLOROPHENYL)CYCLOPENTYL]-N-(3-(SPIRO[INDENE-1,4′-PIPERIDINE]-10-YL)PROPYL)CARBOXAMIDE] the figure was 6.98; with `O=C(NCCCN1CCC2(CC1)Cc1ccccc1C2)C(c1ccccc1)c1ccccc1` [Example 61, 2,2-DIPHENYL-N-(3-(SPIRO[INDANE-2,4′-PIPERIDINE]-10-YL)PROPYL)ACETAMIDE], 7.31; with `Cc1onc(-c2c(F)cccc2Cl)c1C(=O)NCCCCCCN1CCC2(CCc3ccccc32)CC1` [Example 12, [3-(2-CHLORO-6-FLUOROPHENYL)-5-METHYLISOXAZOL-4-YL]-N-(6-(SPIRO[INDANE-1,4′-PIPERIDINE]-10-YL)HEXYL)CARBOXAMIDE], 6.18.
The same measure, in the same setting: with `O=C(NCCN1CCC2(CCc3ccccc32)CC1)C(c1ccccc1)c1ccccc1` [Example 41, 2,2-DIPHENYL-N-(2-(SPIRO[INDANE-1,4′-PIPERIDINE]-10-YLETHYL) ACETAMIDE] the figure was 6.99; with `CC(C)(C)c1cc(C(=O)NCCCCCN2CCC3(C=Cc4ccccc43)CC2)n(Cc2ccccc2)n1` [Example 37, [3-(TERT-BUTYL)-1-BENZYL)PYRAZOL-5-YL]-N-(5-(SPIRO[INDENE-1,4′-PIPERIDINE]-10-YL)PENTYL)CARBOXAMIDE], 6.10.
Regarding `O=C(NCCCN1CCC2(C=Cc3ccccc32)CC1)C1(c2ccc(Cl)cc2)CC1` [Example 73, [(4-CHLOROPHENYL)CYCLOPROPYL]-N-(3-(SPIRO[INDENE-1,4′-PIPERIDINE]-10-YL)PROPYL)CARBOXAMIDE], the pKi is 6.62.
Same read-out and setting: with `O=C(NCCCN1CCC2(CC1)Cc1ccccc1C2=O)C(c1ccc(Cl)cc1)c1ccc(Cl)cc1` [Example 91, 2,2-BIS(4-CHLOROPHENYL)-N-[3-(1-OXOSPIRO[INDANE-2,4′-PIPERIDINE]-10-YL)PROPYL]ACETAMIDE] the figure was 6.42; with `O=C(NCCCCN1CCC2(CCc3ccccc32)CC1)C(c1ccccc1)c1ccccc1` [Example 4, 2,2-DIPHENYL-N-(4-(SPIRO[INDANE-1,4′-PIPERIDINE]-10-YL)BUTYL)ACETAMIDE], 6.67.
Regarding `O=C(NCCCN1CCC2(CCc3ccccc32)CC1)C1(c2ccc(Cl)cc2)CCCCC1` [Example 53, 1-[(4-CHLOROPHENYL)CYCLOHEXYL]-N-(3-(SPIRO[INDANE-1,4′-PIPERIDINE]-10-YL)PROPYL)CARBOXAMIDE], the negative-log Ki (pKi) was 7.24.
